Each structure is given as a SMILES string.

One test concerns the target T1, NO synthase (Rattus norvegicus, UniProt P29476).
T1 construct: the supernatant was then removed by decantation and frozen in portions at −80° C; from tissue; host or cells: rat cerebellum, 20,000 g supernatant of homogenate
Nature of the test: HTS-NOS assay (NOS assay): conversion of radioactive arginine, cation-exchanger filter plate. In kind it is biochemical. To be noted: 10 μM. The method, boiled down:
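Rat cerebellum supernatant as NOS source, incubated with radiolabelled arginine plus cofactors including NADPH at 25 °C for 5-60 min depending on enzyme activity. Unconverted arginine was trapped on a cation-exchange filter plate, citrulline washed out, and bound arginine counted by scintillation; % inhibition versus no-compound reactions.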
Regarding `CC(=O)OCc1ccc(-c2nc3ncccn3c2N(C(C)=O)C(C)(C)CC(C)(C)C)o1` [Example 249, acetic acid 5-{3-[acetyl-(1,1,3,3-tetramethyl-butyl)-amino]-imidazo[1,2-a]-pyrimidin-2-yl}-furan-2-yl methyl ester], the “HTS-NOS assay: % inhibition (10 μM)” value came to 54%.

With `CC(=O)OCc1ccc(-c2nc3cccc(C)n3c2N(C(C)=O)C2CCCCC2)o1` [Example 260, acetic acid 5-[3-(acetyl-cyclohexyl-amino)-5-methyl-imidazo[1,2-a]pyridin-2-yl]-furan-2-yl methyl ester], the “HTS-NOS assay: % inhibition (10 μM)” value stood at 51%.

As for `CC(=O)N(c1c(C)cccc1C)c1c(-c2ccccc2C(F)(F)F)nc2ccc(C)cn12` [Example 261, N-(2,6-dimethyl-phenyl)-N-[6-methyl-2-(2-trifluorO-methyl-phenyl)-imidazo[1,2-a]pyridin-3-yl]-acetamide], the “HTS-NOS assay: % inhibition (10 μM)” value stood at 61%.

As to `C#[N+]CCCCCCN(C(C)=O)c1c(-c2ccc(C)cc2)nc2cc(C)ccn12` [Example 279, {6-[acetyl-(7-methyl-2-p-tolyl-imidazo[1,2-a]pyridin-3-yl)-amino]-hexyl}-methylidyne-ammonium], the “HTS-NOS assay: % inhibition (10 μM)” value amounted to 71%.

As to `[C-]#[N+]CCCCCCN(C(C)=O)c1c(-c2ccccc2OC)nc2cc(C)ccn12` [Example 281, (6-{acetyl-[2-(2-methoxy-phenyl)-7-methyl-imidazo[1,2-a]pyridin-3-yl]-amino}-hexyl)-methylidyne-ammonium], the “HTS-NOS assay: % inhibition (10 μM)” value came out at 62%.

Still in this test, the particulars now being: read-out: HTS-NOS assay: % inhibition (10 μM).
Consider `CC(=O)N(c1c(C)cccc1C)c1c(-c2ccc(Cl)cc2Cl)nc2ccccn12` [Example 247, N-[2-(2,4-dichloro-phenyl)-imidazo[1,2-a]pyridin-3-yl]-N-(2,6-dimethyl-phenyl)-acetamide], for which the inhibition at 10 µM was determined as 56%.

On to `CC(=O)N(c1c(-c2ccc(C(=O)O)o2)nc2nc(C)ccn12)C(C)(C)CC(C)(C)C` [Example 248, 5-{3-[acetyl-(1,1,3,3-tetramethyl-butyl)-amino]-7-methyl-imidazo[1,2-a]-pyrimidin-2-yl}-furan-2-carboxylic acid], for which the inhibition at 10 µM was 52%.

Regarding `CC(=O)N(c1c(C)nc2cc(C)ccn12)C(C)(C)CC(C)(C)C` [Example 250, N-(2,7-dimethyl-imidazo[1,2-a]pyridin-3-yl)-N-(1,1,3,3-tetramethyl-butyl)-acetamide], the inhibition at 10 µM stood at 58%.

Regarding `COc1cc(-c2nc3nc(Cl)cc(N)n3c2N(C(C)=O)C2CCCCC2)ccc1OC(C)=O` [Example 251, acetic acid 4-[3-(acetyl-cyclohexyl-amino)-5-amino-7-chloro-imidazo[1,2-a]-pyrimidin-2-yl]-2-methoxy-phenyl ester], the inhibition at 10 µM is 51%.

For `COc1cc(-c2nc3nc(C)cc(C)n3c2N(C(C)=O)C2CCCCC2)ccc1OC(C)=O` [Example 252, acetic acid 4-[3-(acetyl-cyclohexyl-amino)-5,7-dimethyl-imidazo[1,2-a]-pyrimidin-2-yl]-2-methoxy-phenyl ester], the inhibition at 10 µM is 53%.

For the molecule `CC(=O)N(c1c(-c2c(F)cccc2Cl)nc2c(C)cc(Br)cn12)C1CCCCC1` [Example 253, N-[6-bromo-2-(2-chloro-6-fluoro-phenyl)-8-methyl-imidazo[1,2-a]pyridin-3-yl]-N-cyclohexyl-acetamide], the inhibition at 10 µM came to 51%.

As for `CC(=O)N(c1c(-c2c(F)cccc2Cl)nc2cccc(C)n12)C1CCCCC1` [Example 254, N-[2-(2-chloro-6-fluoro-phenyl)-5-methyl-imidazo[1,2-a]pyridin-3-yl]-N-cyclohexyl-acetamide], the inhibition at 10 µM was 51%.

As to `CCCCN(C(C)=O)c1c(-c2cccc(Cl)c2Cl)nc2ncccn12` [Example 255, N-butyl-N-[2-(2,3-dichloro-phenyl)-imidazo[1,2-a]pyrimidin-3-yl]-acetamide], the inhibition at 10 µM came out at 65%.

Turning to `CC(=O)N(c1c(-c2ccc(Cl)s2)nc2ncccn12)C(C)(C)CC(C)(C)C` [Example 256, N-[2-(5-chloro-thiophen-2-yl)-imidazo[1,2-a]pyrimidin-3-yl]-N-(1,1,3,3-tetramethyl-butyl)-acetamide], the inhibition at 10 µM came to 55%.

As for `COC(=O)CN(C(C)=O)c1c(C2CCCCC2)nc2cc(C)ccn12` [Example 257, [acetyl-(2-cyclohexyl-7-methyl-imidazo[1,2-a]pyridin-3-yl)-amino]-acetic acid methyl ester], the inhibition at 10 µM worked out at 56%.

As for `CC(=O)N(c1c(-c2c(F)cccc2Cl)nc2ccccn12)C(C)(C)C` [Example 258, N-tert-butyl-N-[2-(2-chloro-6-fluoro-phenyl)-imidazo[1,2-a]pyridin-3-yl]-acetamide], the inhibition at 10 µM was determined as 60%.

`CC(=O)N(c1c(-c2ccccn2)nc2cc(C)cc(C)n12)C1CCCCC1` [Example 259, N-cyclohexyl-N-(5,7-dimethyl-2-pyridin-2-yl-imidazo[1,2-a]pyridin-3-yl)-acetamide]: the inhibition at 10 µM turned out to be 73%.

As to `CC(=O)N(c1c(-c2ccco2)nc2cc(C)ccn12)C1CCCCC1` [Example 262, N-cyclohexyl-N-(2-furan-2-yl-7-methyl-imidazo[1,2-a]pyridin-3-yl)-acetamide], the inhibition at 10 µM is 54%.

On to `CC(=O)N(c1c(-c2ccccn2)nc2cc(C)ccn12)C1CCCCC1` [Example 263, N-cyclohexyl-N-(7-methyl-2-pyridin-2-yl-imidazo[1,2-a]pyridin-3-yl)-acetamide], for which the inhibition at 10 µM turned out to be 64%.

In the case of `CC(=O)N(c1c(-c2ccc(C3OCCO3)o2)nc2cccc(C)n12)C1CCCCC1` [Example 264, N-cyclohexyl-N-[2-(5-[1,3]dioxolan-2-yl-furan-2-yl)-5-methyl-imidazo[1,2-a]-pyridin-3-yl]-acetamide], the inhibition at 10 µM worked out at 50%.

`CCCc1cccc2nc(-c3cccnc3)c(N(C(C)=O)C(C)(C)C)n12` [Example 265, N-tert-butyl-N-(5-propyl-2-pyridin-3-yl-imidazo[1,2-a]pyridin-3-yl)-acetamide]: the inhibition at 10 µM was 54%.

Turning to `CC(=O)N(c1c(-c2ccc(C)s2)nc2ncccn12)C(C)(C)C` [Example 266, N-tert-butyl-N-[2-(5-methyl-thiophen-2-yl)-imidazo[1,2-a]pyrimidin-3-yl]-acetamide], the inhibition at 10 µM is 53%.

As for `CC(=O)N(c1c(-c2ccco2)nc2c(C(=O)O)cccn12)C(C)(C)CC(C)(C)C` [Example 267, 3-[acetyl-(1,1,3,3-tetramethyl-butyl)-amino]-2-furan-2-yl-imidazo[1,2-a]pyridine-8-carboxylic acid], the inhibition at 10 µM is 62%.

For `CC(=O)N(c1c(-c2cc(C)c(C)o2)nc2ccc(C)cn12)C(C)(C)C` [Example 268, N-tert-butyl-N-[2-(4,5-dimethyl-furan-2-yl)-6-methyl-imidazo[1,2-a]pyridin-3-yl]-acetamide], the inhibition at 10 µM was found to be 51%.

`CC(=O)N(c1c(-c2cccc(Oc3ccc(Cl)cc3)c2)nc2ccccn12)C1CCCCC1` [Example 269, N-{2-[3-(4-chloro-phenoxy)-phenyl]-imidazo[1,2-a]pyridin-3-yl}-N-cyclohexyl-acetamide]: the inhibition at 10 µM was determined as 51%.

Regarding `COc1cc(-c2nc3ncccn3c2N(C(C)=O)C2CCCCC2)ccc1OC(C)=O` [Example 270, acetic acid 4-[3-(acetyl-cyclohexyl-amino)-imidazo[1,2-a]pyrimidin-2-yl]-2-methoxy-phenyl ester], the inhibition at 10 µM was 52%.

As to `CC(=O)N(c1c(-c2ccc(Br)o2)nc2c(C)cccn12)C(C)(C)CC(C)(C)C` [Example 271, N-[2-(5-bromo-furan-2-yl)-8-methyl-imidazo[1,2-a]pyridin-3-yl]-N-(1,1,3,3-tetramethyl-butyl)-acetamide], the inhibition at 10 µM was 51%.

As to `CC(=O)N(c1c(C)cccc1C)c1c(-c2cccc(O)c2)nc2nc(C)cc(C)n12` [Example 272, N-(2,6-dimethyl-phenyl)-N-[2-(3-hydroxy-phenyl)-5,7-dimethyl-imidazo[1,2-a]-pyrimidin-3-yl]-acetamide], the inhibition at 10 µM is 54%.

As to `CC(=O)N(c1c(-c2cccc(Cl)c2Cl)nc2ccccn12)C1CCCCC1` [Example 273, N-cyclohexyl-N-[2-(2,3-dichloro-phenyl)-imidazo[1,2-a]pyridin-3-yl]-acetamide], the inhibition at 10 µM worked out at 55%.

For the molecule `CC(=O)N(c1c(-c2ccc(Cl)cc2Cl)nc2cccc(C)n12)C1CCCCC1` [Example 274, N-cyclohexyl-N-[2-(2,4-dichloro-phenyl)-5-methyl-imidazo[1,2-a]pyridin-3-yl]-acetamide], the inhibition at 10 µM is 64%.

As for `CC(=O)N(c1c(-c2ccc(Cl)cc2Cl)nc2ncccn12)C1CCCCC1` [Example 275, N-cyclohexyl-N-[2-(2,4-dichloro-phenyl)-imidazo[1,2-a]pyrimidin-3-yl]-acetamide], the inhibition at 10 µM amounted to 59%.

As to `COC(=O)CN(C(C)=O)c1c(-c2ccccc2C)nc2cnccn12` [Example 276, [acetyl-(2-o-tolyl-imidazo[1,2-a]pyrazin-3-yl)-amino]-acetic acid methyl ester], the inhibition at 10 µM is 50%.

Turning to `CC(=O)N(c1c(-c2cccs2)nc2c(Cl)cc(Cl)cn12)C(C)(C)C` [Example 277, N-tert-butyl-N-(6,8-dichloro-2-thiophen-2-yl-imidazo[1,2-a]pyridin-3-yl)-acetamide], the inhibition at 10 µM was determined as 53%.

`CCCc1cccc2nc(-c3cccs3)c(N(C(C)=O)C(C)(C)C)n12` [Example 278, N-tert-butyl-N-(5-propyl-2-thiophen-2-yl-imidazo[1,2-a]pyridin-3-yl)-acetamide]: the inhibition at 10 µM was 55%.

Take `CCCCN(C(C)=O)c1c(-c2ccc(C)cc2)nc2ccc(C)cn12` [Example 280, N-butyl-N-(6-methyl-2-p-tolyl-imidazo[1,2-a]pyridin-3-yl)-acetamide]: the inhibition at 10 µM was found to be 53%.

A word on the inhibition: it is the percentage by which the read-out fell short of the control.

These data come from patent US20040023972A1, “Use of substituted imidazo[1,2-a]-pyridin-, -pyrimidin-and-pyrazin-3-yl-amine derivatives in the preparation of medicaments for inhibiting NOS” (Gruenenthal GmbH, priority 2000, published 2004).
